From patent US20050004118A1, “Prodrugs of non-steroidal anti-inflammatory and carboxylic acid containing compounds” (priority 2000, published 2005)
Like-named read-outs stand apart in the source and are kept apart here. Values belong to the compound of their own block, whether it stands above or below them.

What was measured:
[1] = stability against chemical hydrolysis in pH solutions; type: physicochemical
plasma enzymes = assay: half-life of prodrug ester in plasma (hydrolysis by plasma enzymes); conditions: plasma
[2] = as above; conditions: in plasma at physiologic pH
[3] = cited from earlier work

half-life ([1]; pH 1.0 solution, pH 1, 1.0 pH solution, read-out: half life in a 1.0 pH solution (converted)): 7.6 h
half-life ([1]; pH 7.4 solution, pH 7.4, 7.4 pH solution, read-out: half life in a 7.4 pH solution (converted)): 66 h
half-life (plasma enzymes): 0.333 h
Compound: Cc1cccc(Nc2ccccc2C(=O)OCCOC(=O)N2CCOCC2)c1C [2-[(2,3-Dimethylphenyl)amino]-benzoic acid morpholinocarbonyloxyethyl ester]

Compound: O=C(Cc1ccccc1Nc1c(Cl)cccc1Cl)OCCOC(=O)N1CCOCC1 [2-[(2,6-Dichlorophenyl])amino]benzene-acetic acid morpholinocarbonyloxyethyl ester]
half life in a 1.0 pH solution ([1]; 1.0 pH solution): 8 hours
half life in a 7.4 pH solution ([1]; 7.4 pH solution): 47 hours
half-life in plasma [2]: 0.35 h

Compound: O=C(Oc1ccccc1C(=O)O)c1ccccc1O [Salsalate, salsalate]
solubility at normal acidic gastric pH [3]: insoluble
